These results are taken from patent US10670605B2, “Cysteine reactive probes and uses thereof” (The Scripps Research Institute, priority 2015, dated 2020).

Assay in all cases: Competitive isoTOP-ABPP in situ (fragment-treated cells)
Common to all, as to type: cell-based
Holding throughout (conditions): 200 μM, insitu, 231

In assay [1] the target is cysteines in MDA-MB-231 and Ramos cells (Homo sapiens, UniProt P45984).
In assay [2] the target is cysteines in MDA-MB-231 and Ramos cells (Homo sapiens, UniProt Q5MNZ6).
Chain of cysteines in MDA-MB-231 and Ramos cells (Homo sapiens, UniProt Q5MNZ6) (Q5MNZ6 whole entry): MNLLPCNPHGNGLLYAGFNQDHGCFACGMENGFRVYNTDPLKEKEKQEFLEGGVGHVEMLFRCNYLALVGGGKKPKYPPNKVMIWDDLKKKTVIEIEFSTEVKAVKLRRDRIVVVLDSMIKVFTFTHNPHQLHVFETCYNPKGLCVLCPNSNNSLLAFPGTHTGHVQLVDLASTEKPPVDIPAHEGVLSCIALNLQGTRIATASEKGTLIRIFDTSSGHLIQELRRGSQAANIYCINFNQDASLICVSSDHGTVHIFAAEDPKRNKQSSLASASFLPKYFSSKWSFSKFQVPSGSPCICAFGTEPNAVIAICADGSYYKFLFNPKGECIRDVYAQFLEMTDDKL
For assay [3], the target named is T1, cysteines in MDA-MB-231 and Ramos cells (Homo sapiens, UniProt P51649).
T1 sequence (P51649 48-535): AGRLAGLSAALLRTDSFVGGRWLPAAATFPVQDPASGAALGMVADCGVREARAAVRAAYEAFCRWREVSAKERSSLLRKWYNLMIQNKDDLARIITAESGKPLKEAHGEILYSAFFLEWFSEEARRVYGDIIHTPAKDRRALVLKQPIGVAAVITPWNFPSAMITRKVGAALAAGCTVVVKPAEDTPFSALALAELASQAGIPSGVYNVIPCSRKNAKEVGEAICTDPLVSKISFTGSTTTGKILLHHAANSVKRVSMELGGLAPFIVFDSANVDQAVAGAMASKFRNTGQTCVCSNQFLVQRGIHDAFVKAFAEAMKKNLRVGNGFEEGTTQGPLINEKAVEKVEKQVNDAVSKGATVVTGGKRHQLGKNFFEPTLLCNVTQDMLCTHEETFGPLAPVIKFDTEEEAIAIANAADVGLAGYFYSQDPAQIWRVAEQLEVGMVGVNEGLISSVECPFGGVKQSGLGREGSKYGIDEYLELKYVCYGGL

The target of assay [4] is T2, cysteines in MDA-MB-231 and Ramos cells (Homo sapiens, UniProt Q9NY27).
T2 sequence (Q9NY27 1-417): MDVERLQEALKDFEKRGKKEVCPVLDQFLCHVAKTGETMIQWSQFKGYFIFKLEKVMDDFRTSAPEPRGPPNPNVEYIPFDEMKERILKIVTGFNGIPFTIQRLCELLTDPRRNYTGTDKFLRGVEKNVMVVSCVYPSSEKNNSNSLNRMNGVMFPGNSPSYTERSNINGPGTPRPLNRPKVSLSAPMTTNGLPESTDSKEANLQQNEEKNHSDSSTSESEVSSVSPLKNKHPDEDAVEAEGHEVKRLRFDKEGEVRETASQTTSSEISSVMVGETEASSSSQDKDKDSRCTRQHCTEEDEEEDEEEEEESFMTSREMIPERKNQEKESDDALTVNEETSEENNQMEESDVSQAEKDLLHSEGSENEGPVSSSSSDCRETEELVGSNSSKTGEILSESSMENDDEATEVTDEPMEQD

The target in assay [5] is T3, cysteines in MDA-MB-231 and Ramos cells (Homo sapiens, UniProt Q86UY8).
T3 sequence (Q86UY8 1-548): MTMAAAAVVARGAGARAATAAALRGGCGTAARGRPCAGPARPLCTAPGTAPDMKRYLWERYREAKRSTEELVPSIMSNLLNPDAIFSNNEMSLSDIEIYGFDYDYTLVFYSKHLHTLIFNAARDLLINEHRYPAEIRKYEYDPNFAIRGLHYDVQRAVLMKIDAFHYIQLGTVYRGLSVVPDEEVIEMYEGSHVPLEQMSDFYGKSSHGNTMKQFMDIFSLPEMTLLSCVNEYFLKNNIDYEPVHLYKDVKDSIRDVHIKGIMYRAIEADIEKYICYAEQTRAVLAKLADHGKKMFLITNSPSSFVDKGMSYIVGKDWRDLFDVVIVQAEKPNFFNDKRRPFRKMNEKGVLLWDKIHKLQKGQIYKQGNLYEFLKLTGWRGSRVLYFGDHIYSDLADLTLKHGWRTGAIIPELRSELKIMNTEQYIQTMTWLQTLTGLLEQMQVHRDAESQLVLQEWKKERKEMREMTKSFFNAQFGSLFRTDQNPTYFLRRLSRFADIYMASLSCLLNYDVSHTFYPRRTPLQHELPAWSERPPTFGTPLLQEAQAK

In assay [6] the target is cysteines in MDA-MB-231 and Ramos cells (Homo sapiens, UniProt P48643).
Chain of cysteines in MDA-MB-231 and Ramos cells (Homo sapiens, UniProt P48643) (P48643 whole entry): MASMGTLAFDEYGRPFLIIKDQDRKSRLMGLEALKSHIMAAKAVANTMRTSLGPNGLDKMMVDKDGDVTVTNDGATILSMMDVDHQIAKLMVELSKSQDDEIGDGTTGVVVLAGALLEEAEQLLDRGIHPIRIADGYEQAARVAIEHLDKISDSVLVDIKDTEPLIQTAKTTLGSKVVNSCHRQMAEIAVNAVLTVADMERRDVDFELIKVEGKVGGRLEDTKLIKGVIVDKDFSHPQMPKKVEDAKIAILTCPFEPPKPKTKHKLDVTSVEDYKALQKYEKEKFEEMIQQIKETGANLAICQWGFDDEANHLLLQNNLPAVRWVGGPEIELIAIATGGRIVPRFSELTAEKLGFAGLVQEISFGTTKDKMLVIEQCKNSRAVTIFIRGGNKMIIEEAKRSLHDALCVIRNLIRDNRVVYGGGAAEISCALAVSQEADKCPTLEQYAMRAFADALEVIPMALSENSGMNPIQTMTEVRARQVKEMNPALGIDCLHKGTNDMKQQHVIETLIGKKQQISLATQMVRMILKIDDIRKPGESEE
Assay [7] concerns the target cysteines in MDA-MB-231 and Ramos cells (Homo sapiens, UniProt P22061).
The target in assay [8] is cysteines in MDA-MB-231 and Ramos cells (Homo sapiens, UniProt Q96FX7).
Chain of cysteines in MDA-MB-231 and Ramos cells (Homo sapiens, UniProt Q96FX7) (Q96FX7 whole entry): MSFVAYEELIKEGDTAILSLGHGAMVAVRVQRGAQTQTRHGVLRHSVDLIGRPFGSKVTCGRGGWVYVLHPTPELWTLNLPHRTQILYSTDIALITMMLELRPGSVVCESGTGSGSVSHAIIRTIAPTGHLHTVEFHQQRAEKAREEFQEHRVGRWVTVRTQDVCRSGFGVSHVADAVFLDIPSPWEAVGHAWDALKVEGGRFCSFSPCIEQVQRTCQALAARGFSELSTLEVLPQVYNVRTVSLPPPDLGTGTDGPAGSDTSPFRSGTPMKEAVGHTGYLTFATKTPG
The target in assay [9] is T4, cysteines in MDA-MB-231 and Ramos cells (Homo sapiens, UniProt Q8N1F7).
T4 sequence (Q8N1F7 1-819): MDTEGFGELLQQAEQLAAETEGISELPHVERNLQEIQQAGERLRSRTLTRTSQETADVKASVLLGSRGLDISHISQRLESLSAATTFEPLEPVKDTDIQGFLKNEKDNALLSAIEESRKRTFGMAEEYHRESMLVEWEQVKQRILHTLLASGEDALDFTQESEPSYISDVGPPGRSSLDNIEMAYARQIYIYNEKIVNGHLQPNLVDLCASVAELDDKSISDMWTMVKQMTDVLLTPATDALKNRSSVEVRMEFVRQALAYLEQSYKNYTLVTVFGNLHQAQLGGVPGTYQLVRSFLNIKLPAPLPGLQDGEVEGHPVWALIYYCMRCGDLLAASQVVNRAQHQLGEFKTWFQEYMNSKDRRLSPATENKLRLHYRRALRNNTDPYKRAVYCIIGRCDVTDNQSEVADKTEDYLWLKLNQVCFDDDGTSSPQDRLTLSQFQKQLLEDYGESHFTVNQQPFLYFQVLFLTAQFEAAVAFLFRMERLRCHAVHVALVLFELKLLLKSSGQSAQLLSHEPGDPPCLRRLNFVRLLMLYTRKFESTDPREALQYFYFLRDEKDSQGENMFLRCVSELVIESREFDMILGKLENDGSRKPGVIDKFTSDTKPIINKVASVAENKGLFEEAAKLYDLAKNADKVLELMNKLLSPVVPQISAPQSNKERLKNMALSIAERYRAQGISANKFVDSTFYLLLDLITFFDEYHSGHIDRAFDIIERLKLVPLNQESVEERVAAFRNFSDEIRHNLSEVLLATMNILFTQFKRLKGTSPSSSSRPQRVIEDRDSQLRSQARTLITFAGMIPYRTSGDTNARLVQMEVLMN

For assay [10], the target named is cysteines in MDA-MB-231 and Ramos cells (Homo sapiens, UniProt O14933).
Chain of cysteines in MDA-MB-231 and Ramos cells (Homo sapiens, UniProt O14933) (O14933 whole entry): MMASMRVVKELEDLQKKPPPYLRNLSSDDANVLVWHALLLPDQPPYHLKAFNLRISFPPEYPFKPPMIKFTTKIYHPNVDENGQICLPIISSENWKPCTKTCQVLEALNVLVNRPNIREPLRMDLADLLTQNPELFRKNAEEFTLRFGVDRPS
Assay [11] addresses cysteines in MDA-MB-231 and Ramos cells (Homo sapiens, UniProt P07858).

Chain of cysteines in MDA-MB-231 and Ramos cells (Homo sapiens, UniProt P45984) (P45984 whole entry): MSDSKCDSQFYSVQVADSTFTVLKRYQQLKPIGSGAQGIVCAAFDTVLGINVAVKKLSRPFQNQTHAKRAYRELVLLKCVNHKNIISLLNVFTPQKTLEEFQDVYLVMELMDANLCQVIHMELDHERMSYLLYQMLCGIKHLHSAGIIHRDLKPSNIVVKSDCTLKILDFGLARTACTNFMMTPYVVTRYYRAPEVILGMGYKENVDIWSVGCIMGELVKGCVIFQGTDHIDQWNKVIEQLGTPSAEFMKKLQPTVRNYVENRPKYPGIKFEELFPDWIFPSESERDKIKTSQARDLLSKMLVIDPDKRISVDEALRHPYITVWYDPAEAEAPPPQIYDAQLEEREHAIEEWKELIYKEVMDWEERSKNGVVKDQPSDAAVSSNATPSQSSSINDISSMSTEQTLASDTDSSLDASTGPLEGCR
Chain of cysteines in MDA-MB-231 and Ramos cells (Homo sapiens, UniProt P22061) (P22061 whole entry): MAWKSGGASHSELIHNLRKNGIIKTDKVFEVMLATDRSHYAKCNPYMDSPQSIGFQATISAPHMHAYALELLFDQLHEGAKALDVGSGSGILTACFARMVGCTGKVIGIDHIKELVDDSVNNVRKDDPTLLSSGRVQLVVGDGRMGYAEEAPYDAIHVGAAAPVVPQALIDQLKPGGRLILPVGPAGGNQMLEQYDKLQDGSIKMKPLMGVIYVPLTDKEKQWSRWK

Regarding `O=C(CCl)NC(=O)NC12CC3CC(CC(C3)C1)C2` [compound 12], the “isoTOP-ABPP ratio P45984_C177” value in [1] stood at 2.1. In addition, the “isoTOP-ABPP ratio Q5MNZ6_C63” value in assay [2] stood at 20.0. Moreover, the “isoTOP-ABPP ratio P51649_C340” value in [3] was 20.0. Also, the “isoTOP-ABPP ratio Q9NY27_C22” value in [4] was determined as 20.0. Further, the “isoTOP-ABPP ratio Q86UY8_C276” value in assay [5] stood at 20.0. In assay [6], the “isoTOP-ABPP ratio P48643_C253” value was found to be 5.1. In addition, in assay [7], the “isoTOP-ABPP ratio P22061_C102” value stood at 5.8. In assay [8], the “isoTOP-ABPP ratio, cysteine Q96FX7_C209” value was found to be 20.0. For the same compound, the “isoTOP-ABPP ratio Q8N1F7_C522” value in [9] came out at 20.0.
For `CC1CCc2ccccc2N1C(=O)CCl` (stereo not drawn) [compound 45], in assay [2], the “isoTOP-ABPP ratio Q5MNZ6_C63” value was 2.6. Besides, the “isoTOP-ABPP ratio P51649_C340” value in [3] was 2.4. The “isoTOP-ABPP ratio O14933_C98” value in assay [10] came out at 20.0. In addition, the “isoTOP-ABPP ratio Q9NY27_C22” value in [4] amounted to 20.0. Further, in assay [11], the “isoTOP-ABPP ratio P07858_C211” value worked out at 2.4. In addition, the “isoTOP-ABPP ratio Q86UY8_C276” value in assay [5] amounted to 2.1. Also, the “isoTOP-ABPP ratio P48643_C253” value in [6] is listed as 1.2. The “isoTOP-ABPP ratio Q96FX7_C209” value in assay [8] is listed as 20.0. The “isoTOP-ABPP ratio Q8N1F7_C522” value in assay [9] worked out at 20.0.
